Source: US20170027896A1, “METHODS AND COMPOSITIONS FOR THE TREATMENT OF VASCULAR MALFORMATION” (IFOM - FONDAZIONE ISTITUTO FIRC DI ONCOLOGIA MOLECOLARE, priority 2014, published 2017)
Entries after “also recorded” stand apart in the source; their conditions may differ.

Legend:
[1] = system: CCM3-knockout (KO) endothelial cells; test: Axin2 and S100a4 transcription in un-stimulated CCM3-knockout endothelial cells treated with Wnt pathway inhibitors; format: cell-based, mouse; details: 48 h, IWP2, IWP12 0.5, 2, 5 DM, Dkk1 0.5 uM
Method: Drugs were added to confluent cells for 48 h before the indicated assays. Final concentrations for IWP2 and IWP12, both from Sigma-Aldrich, were: 0.5, 2, 5 DM. Drugs were dissolved in DMSO, control treatment (Vehicle) was 0.1% DMSO final concentration, as for drug treatment. Murine recombinant Dkk1 (R&D) was 0.5 DM on cells.
(§1) RNA extraction was performed with RNeasy kits (74106; […]). The RNA (1 μg) was reverse transcribed with random hexamers (High Capacity cDNA Archive kits; Applied Biosystems). The cDNA was amplified with TaqMan gene expression assays (Applied Biosystems) using a 7900 HT thermocycler (ABI/Prism). For each sample, the expression levels were determined with the comparative threshold cycle (Ct) method, and normalized to the housekeeping genes encoding 18S and glyceraldehyde-3-phosphate dehydrogenase (GAPDH). For amplification, the following probes (Applied Biosystems) that have been validated to recognize the mouse transcripts in rtPCR were used: Axin2, Nkd1, Lef1, ccnd1, cMyc-Klf4, Ly6a, S100a4, Id1, Cdh2, Acta2, CD44. The probes to identify the CCM3 mRNA transcript were custom designed, as: forward, […] (SEQ ID No. 12); reverse, GCTCTGGCCGCTCAATCA (SEQ ID No. 13); reporter sequence, […] (SEQ ID No. 14).

[2] = system: CCM3-knockout endothelial cell line; test: rtPCR of b-catenin target gene and progenitor/EndMT markers in CCM3-knockout endothelial cell line; format: cell-based, mouse; details: 48 h; 135 mM sulindac sulfide, 125 mM sulindac sulfone, 200 mM silibinin, 250 mM salinomycin
Method: In some experiments, endothelial cell lines from the lungs of CCM3-flox/flox mice (8-10 weeks old) were immortalized in culture through retroviral expression of polyoma middle T gene^60. […] These cells were then maintained in culture for up to 25 passages without detectable changes in the effects of this CCM3 ablation.
Drugs were added to confluent cells for 48 h before the indicated assays. The final concentrations used were: […] (all from Sigma-Aldrich). As all of these were dissolved in DMSO, control treatment (vehicle) was 0.1% DMSO final concentration, as for drug treatment.
as §1

b-catenin = biological target: T1, b-catenin (mouse, UniProt Q02248 2-781); test: co-immunoprecipitation with VE-cadherin antibodies and Western blot, murine endothelial cell line extracts
T1 construct: Endogenous protein in total cell extracts, co-immunoprecipitated with VE-cadherin antibodies; also called beta-catenin; β-catenin
T1 sequence (looked up): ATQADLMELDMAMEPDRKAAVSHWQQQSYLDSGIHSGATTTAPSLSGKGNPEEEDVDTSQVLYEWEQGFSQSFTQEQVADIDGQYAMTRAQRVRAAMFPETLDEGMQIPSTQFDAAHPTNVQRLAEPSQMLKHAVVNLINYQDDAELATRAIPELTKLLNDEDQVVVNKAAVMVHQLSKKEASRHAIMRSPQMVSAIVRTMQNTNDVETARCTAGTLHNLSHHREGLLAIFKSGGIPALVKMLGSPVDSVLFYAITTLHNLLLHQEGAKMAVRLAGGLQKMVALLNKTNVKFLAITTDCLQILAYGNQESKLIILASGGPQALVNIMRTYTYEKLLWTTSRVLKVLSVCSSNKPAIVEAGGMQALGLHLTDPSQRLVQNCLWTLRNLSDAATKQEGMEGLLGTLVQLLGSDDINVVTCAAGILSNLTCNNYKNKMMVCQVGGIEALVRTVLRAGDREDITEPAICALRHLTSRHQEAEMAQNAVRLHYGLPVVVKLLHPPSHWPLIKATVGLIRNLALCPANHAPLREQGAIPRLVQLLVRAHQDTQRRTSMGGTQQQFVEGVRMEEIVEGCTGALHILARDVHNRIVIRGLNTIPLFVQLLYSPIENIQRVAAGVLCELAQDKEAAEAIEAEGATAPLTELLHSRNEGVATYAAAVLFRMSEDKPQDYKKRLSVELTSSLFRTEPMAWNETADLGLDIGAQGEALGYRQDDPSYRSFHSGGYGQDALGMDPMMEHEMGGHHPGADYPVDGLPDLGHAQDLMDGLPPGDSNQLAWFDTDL

With `Cc1ccc2nc(NC(=O)CSc3nc4c(c(=O)n3C)SC(C)C4)sc2c1` (stereo not shown) [IWP12] as the molecule, how does the “b-catenin-driven activation of Axin2 and S100a4 transcription” value [1] read?
The value was “not inhibited; also recorded: did not inhibit”.

For `CC[C@@H](C(=O)[C@@H](C)[C@@H](O)[C@H](C)[C@@H]1O[C@@H]([C@@H](CC)C(=O)O)CC[C@@H]1C)[C@H]1O[C@]2(C=C[C@@H](O)[C@]3(CC[C@@](C)([C@H]4CC[C@](O)(CC)[C@H](C)O4)O3)O2)[C@H](C)C[C@@H]1C` [salinomycin], which “inhibition of transcription of Axin2, Klf4 and S100a4 (rtPCR)” value [2] is on record?
Its value is “significantly reduced only Axin2 and S100a4”.

How did the “b-catenin-driven activation of Axin2 and S100a4 transcription” value [1] turn out when `Cc1ccc2nc(NC(=O)CSc3nc4c(c(=O)n3-c3ccccc3)SCC4)sc2c1` [IWP2] was run?
Its value is “not inhibited; also recorded: did not inhibit”.

B1: VE-cadherin (other, mouse, UniProt P55284 46-784, looked up)
chain: DWIWNQMHIDEEKNESLPHYVGKIKSNVNRQNAKYVLQGEFAGKIFGVDANTGNVLAYERLDREKVSEYFLTALIVDKNTNKNLEQPSSFTVKVHDINDNWPVFSHQVFNASVPEMSAIGTSVIRVTAVDADDPTVAGHATVLYQIVKGNEYFSIDNSGLIFTKIKNLDREKQAEYKIVVETQDALGLRGESGTATVMIRLEDINDNFPVFTQSTYTFSVPEDIRVGKPLGFLTVVDPDEPQNRMTKYSIMQGEYRDTFTIETDPKRNEGIIKPTKSLDYEVIQQYTFYIEATDPTIRYEYLSSTSGKNKAMVTINVLDVDEPPVFQRHFYHFKLPENQKKPLIGTVVAKDPDKAQRSIGYSIRKTSDRGQFFRITKQGNIYNEKELDRETYAWYNLTVEANELDSRGNPVGKESIVQVYIEVLDENDNPPEFAQPYEPKVCENAAQGKLVVQISATDKDVVPVNPKFKFALKNEDSNFTLINNHDNTANITVKYGQFNREHAKFHYLPVLISDNGVPSLTGTSTLTVGVCKCNEQGEFTFCEEMAAQAGVSIQALVAIFLCILTITVITLLIILRRRIRKQAHAHSKSALEIHEQLVTYDEEGGGEMDTTSYDVSVLNSVRGGSTKPLRSTMDARPAVYTQVQKPPRLAPGLHGGPREMATMIDVKKEEADNDGGGPPYDTLHIYGYEGAESIAESLSSLSTNSSDSDIDYDFLNDWGPRFKMLAELYGSDPQEELII
notes: Endogenous protein immunoprecipitated from endothelial cell extracts with VE-cadherin antibodies (IP: VE); also called Cdh5
Does B1 bind (b-catenin)?
Result: binds
